Species on record: Rattus norvegicus
Test: DrugMatrix - Regimen: Daily Repeat
Format: toxicity, organism-based, Sprague-Dawley
Set-up: regimen Daily Repeat, gender Male, age 6-8 weeks
Details: in vivo, po, route oral GAVAGE, vehicle 100 % WATER; for ABSOLUTE BASOPHIL / ABSOLUTE EOSINOPHIL / ABSOLUTE LYMPHOCYTE / ABSOLUTE MONOCYTE / ABSOLUTE SEGMENTED NEUTROPHIL / BASOPHIL / EOSINOPHIL / ERYTHROCYTE COUNT / HEMATOCRIT / HEMOGLOBIN / LEUKOCYTE COUNT / LYMPHOCYTE / MEAN CORPUSCULAR HEMOGLOBIN / MEAN CORPUSCULAR HEMOGLOBIN CONCENTRATION / MEAN CORPUSCULAR VOLUME / MONOCYTE / NEUTROPHIL / NUCLEATED RED BLOOD CELLS / PLATELET COUNT: tissue Blood; for ALANINE AMINOTRANSFERASE / ALBUMIN / ALKALINE PHOSPHATASE / ASPARTATE AMINOTRANSFERASE / BLOOD UREA NITROGEN / CARBON DIOXIDE / CHLORIDE / CHOLESTEROL / CREATINE PHOSPHOKINASE / CREATININE / GLUCOSE / LACTATE DEHYDROGENASE / LIPASE / PHOSPHORUS / POTASSIUM / SODIUM / TOTAL BILIRUBIN / TOTAL PROTEIN / URIC ACID: tissue Plasma
[1] = 28 mg/kg, 120 h, dose level Low, time 5 day
[2] = 100 mg/kg, 72 h, dose level High, time 3 day
[3] = 100 mg/kg, 120 h, dose level High, time 5 day

Cn1cc[nH]c1=S [METHIMAZOLE]
ABSOLUTE BASOPHIL [1]: 0 CELLS/uL | ABSOLUTE EOSINOPHIL [1]: 0 CELLS/uL | ABSOLUTE LYMPHOCYTE [1]: 6311.33 CELLS/uL | ABSOLUTE MONOCYTE [1]: 62 CELLS/uL | ABSOLUTE SEGMENTED NEUTROPHIL [1]: 560 CELLS/uL | BASOPHIL [1]: 0% | EOSINOPHIL [1]: 0% | ERYTHROCYTE COUNT [1]: 5.37 x10E6/uL | HEMATOCRIT [1]: 33.8% | HEMOGLOBIN [1]: 13.17 G/DL | LEUKOCYTE COUNT [1]: 6.93 x10E3/uL | LYMPHOCYTE [1]: 90.67% | MEAN CORPUSCULAR HEMOGLOBIN [1]: 24.57 pg | MEAN CORPUSCULAR HEMOGLOBIN CONCENTRATION [1]: 38.93 G/DL | MEAN CORPUSCULAR VOLUME [1]: 63.03 fL | MONOCYTE [1]: 0.67% | NEUTROPHIL [1]: 8.67% | NUCLEATED RED BLOOD CELLS [1]: 0.33 /100WBC | PLATELET COUNT [1]: 1274.33 x10E3/uL | ALANINE AMINOTRANSFERASE [1]: 41.33 u/L | ALBUMIN [1]: 4.13 G/DL | ALKALINE PHOSPHATASE [1]: 368.67 u/L | ASPARTATE AMINOTRANSFERASE [1]: 68.67 u/L | BLOOD UREA NITROGEN [1]: 19.67 mg/dL | CARBON DIOXIDE [1]: 30.33 mmol/L | CHLORIDE [1]: 101 MEQ/L | CHOLESTEROL [1]: 101.33 mg/dL | CREATINE PHOSPHOKINASE [1]: 173 u/L | CREATININE [1]: 0.18 mg/dL | GLUCOSE [1]: 143.67 mg/dL | LACTATE DEHYDROGENASE [1]: 143.67 u/L | LIPASE [1]: 9 u/L | PHOSPHORUS [1]: 10.27 mg/dL | POTASSIUM [1]: 4.87 MEQ/L | SODIUM [1]: 144.47 MEQ/L | TOTAL BILIRUBIN [1]: 0.17 mg/dL | TOTAL PROTEIN [1]: 6.43 G/DL | URIC ACID [1]: 0.53 mg/dL | ABSOLUTE BASOPHIL [2]: 0 CELLS/uL | ABSOLUTE EOSINOPHIL [2]: 0 CELLS/uL | ABSOLUTE LYMPHOCYTE [2]: 13500.67 CELLS/uL | ABSOLUTE MONOCYTE [2]: 119.33 CELLS/uL | ABSOLUTE SEGMENTED NEUTROPHIL [2]: 980 CELLS/uL | BASOPHIL [2]: 0% | EOSINOPHIL [2]: 0% | ERYTHROCYTE COUNT [2]: 5.56 x10E6/uL | HEMATOCRIT [2]: 35.97% | HEMOGLOBIN [2]: 14.1 G/DL | LEUKOCYTE COUNT [2]: 14.6 x10E3/uL | LYMPHOCYTE [2]: 92.67% | MEAN CORPUSCULAR HEMOGLOBIN [2]: 25.4 pg | MEAN CORPUSCULAR HEMOGLOBIN CONCENTRATION [2]: 39.2 G/DL | MEAN CORPUSCULAR VOLUME [2]: 64.73 fL | MONOCYTE [2]: 1% | NEUTROPHIL [2]: 6.33% | NUCLEATED RED BLOOD CELLS [2]: 0.67 /100WBC | PLATELET COUNT [2]: 1423.33 x10E3/uL | ALANINE AMINOTRANSFERASE [2]: 46.33 u/L | ALBUMIN [2]: 4.03 G/DL | ALKALINE PHOSPHATASE [2]: 326.67 u/L | ASPARTATE AMINOTRANSFERASE [2]: 72 u/L | BLOOD UREA NITROGEN [2]: 11 mg/dL | CARBON DIOXIDE [2]: 26 mmol/L | CHLORIDE [2]: 103 MEQ/L | CHOLESTEROL [2]: 84.67 mg/dL | CREATINE PHOSPHOKINASE [2]: 581 u/L | CREATININE [2]: 0.17 mg/dL | GLUCOSE [2]: 154.33 mg/dL | LACTATE DEHYDROGENASE [2]: 228.33 u/L | LIPASE [2]: 9 u/L | PHOSPHORUS [2]: 11.6 mg/dL | POTASSIUM [2]: 6.41 MEQ/L | SODIUM [2]: 143.17 MEQ/L | TOTAL BILIRUBIN [2]: 0.17 mg/dL | TOTAL PROTEIN [2]: 5.97 G/DL | URIC ACID [2]: 1.63 mg/dL | ABSOLUTE BASOPHIL [3]: 0 CELLS/uL | ABSOLUTE EOSINOPHIL [3]: 40.33 CELLS/uL | ABSOLUTE LYMPHOCYTE [3]: 11963 CELLS/uL | ABSOLUTE MONOCYTE [3]: 169.33 CELLS/uL | ABSOLUTE SEGMENTED NEUTROPHIL [3]: 727.33 CELLS/uL | BASOPHIL [3]: 0% | EOSINOPHIL [3]: 0.33% | ERYTHROCYTE COUNT [3]: 5.44 x10E6/uL | HEMATOCRIT [3]: 33.7% | HEMOGLOBIN [3]: 13.17 G/DL | LEUKOCYTE COUNT [3]: 12.9 x10E3/uL | LYMPHOCYTE [3]: 93% | MEAN CORPUSCULAR HEMOGLOBIN [3]: 24.23 pg | MEAN CORPUSCULAR HEMOGLOBIN CONCENTRATION [3]: 39.1 G/DL | MEAN CORPUSCULAR VOLUME [3]: 61.97 fL | MONOCYTE [3]: 1.33% | NEUTROPHIL [3]: 5.33% | NUCLEATED RED BLOOD CELLS [3]: 0 /100WBC | PLATELET COUNT [3]: 1288.67 x10E3/uL | ALANINE AMINOTRANSFERASE [3]: 33.33 u/L | ALBUMIN [3]: 3.97 G/DL | ALKALINE PHOSPHATASE [3]: 316.33 u/L | ASPARTATE AMINOTRANSFERASE [3]: 51.33 u/L | BLOOD UREA NITROGEN [3]: 17.33 mg/dL | CARBON DIOXIDE [3]: 21 mmol/L | CHLORIDE [3]: 104.67 MEQ/L | CHOLESTEROL [3]: 79.67 mg/dL | CREATINE PHOSPHOKINASE [3]: 460 u/L | CREATININE [3]: 0.19 mg/dL | GLUCOSE [3]: 165.33 mg/dL | LACTATE DEHYDROGENASE [3]: 433 u/L | LIPASE [3]: 11.33 u/L | PHOSPHORUS [3]: 10.1 mg/dL | POTASSIUM [3]: 5.88 MEQ/L | SODIUM [3]: 143.5 MEQ/L | TOTAL BILIRUBIN [3]: 0.2 mg/dL | TOTAL PROTEIN [3]: 6.17 G/DL | URIC ACID [3]: 1.43 mg/dL
